Results on five compounds are retold here after patent US20260152503A1, “SPIROBICYCLIC COMPOUNDS” (ACERAND THERAPEUTICS (HONG KONG) LIMITED, priority 2022, published 2026).

One assay has as its target T1, FGFR2 (Homo sapiens, UniProt P21802, K310R/N549K).
T1 construct: in FGFR aberrations of AN3CA (FGFR2/k310R, N549K); host or cells: AN3CA
The assay can be described thus: pERK potency assay (In Cell ELISA), AN3CA cells. Type of assay: cell-based. The note with it: for IC50: pERK, AN3CA (FGFR2/k310R, N549K) cells, 3 hours; for FGFR1 IC50/FGFR2 IC50 / FGFR3 IC50/FGFR2 IC50: selectivity ratio, pERK potency; for FGFR1 IC50/FGFR2 IC50: FGFR2 relative to FGFR1; for FGFR3 IC50/FGFR2 IC50: FGFR2 relative to FGFR3. Summed up: (§1)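 Cells with FGFR aberrations (DMS114 FGFR1 amplification, RT112 FGFR3-TACC3 fusion, AN3CA FGFR2 K310R/N549K) exposed 3 h at 37 °C to compound, final 0.000038–10 μM (4-fold dilutions). pERK (Thr202/Tyr204) quantified by In-Cell ELISA chemiluminescence; IC50 from 4-parameter sigmoidal fit.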
A general note: In an ELISA, binding on a coated surface is turned into a signal by an enzyme label.

The next assay concerns the target T2, FGFR3 (Homo sapiens, UniProt P22607).
T2 construct: RT112 (FGFR3 overexpression/FGFR3-TACC3 fusion); host or cells: RT112; the other entry of the earlier key: TACC3 (Q9Y6A5, Transforming acidic coiled-coil-containing protein 3)
As to the kind of experiment: pERK potency assay (In Cell ELISA), RT112 cells. Type of assay: cell-based. The note with it: RT112 (FGFR3 overexpression/FGFR3-TACC3 fusion) cells, 3 hours. A digest of the protocol: as §1

A further assay has as its target T3, Ba/F3 FGFR2-N549K (Homo sapiens, UniProt P21802, N549K, cells depend on it).
T3 construct: fused on or other part: Q9H694 (Protein bicaudal C homolog 1)
As to the kind of experiment: 2D cell proliferation assay, Ba/F3 FGFR2-N549K. The note with it: 96 hours, CTG, read-out: Cell Line, IC50 Ba/F3 FGFR2-N549K. Type of assay: cell-based, mouse. On the procedure:
(§2) Low IC50 values are indicative of the high potency of the FGFR inhibitor compounds in this assay selling. […] Cell proliferation assays are performed in two-dimensional (2D)) anchorage-dependent conditions in 96 well plates (Corning® Black/Clear flat Bottom, Cat #3603) with the following cell lines: • Ba/F3 FGFR2-BICC1 (human […]): Mouse Ba/F3 cell line stably expressed exogenous human FGFR2-BICC1 fusion gene bearing V546F mutation in FGFR2 Ba/F3; • FGFR2-BICC1 (human FGFR2/[…]): Mouse Ba/F3 cell line stably expressed exogenous human FGFR2-BICC1 fusion gene bearing N549K mutation in FGFR2; • Snu-16: human gastric cancer cell with FGFR2 amplification; • KATO III: human gastric cancer cell with FGFR2 amplification; • AN3CA: Human endometrial cancer with FGFR2 mutation (k310R, N549K); • MFM-223: Human breast cancer with FGFR1/2 amplification; • MFE-296: Human endometrial cancer with FGFR2 mutation (N549K); • MFE-280: Human endometrial cancer with FGFR2 mutation ([…]); • NCI-H1581: human non-small cell lung cancer with FGFR1 amplification; • KG-1a: Acute myelogenous leukemia with FGFR1OP2-FGFR1 translocation; • DMS114: human small cell carcinoma of the lung with FGFR1 amplification; • RT112: human bladder cancer with FGFR3 overexpression/FGFR3-TACC3 fusion; • SW780: human bladder cancer with FGFR3 overexpression/FGFR3-BALAP2L1 fusion; • Hep3B: Liver cancer with FGF19 amplification (FGFR4 ligand); • AGS: Human gastric adenocarcinoma with Kras G12D mutation and FGFR wild type; • PC-9: human non-small cell lung cancer (NSCLC) with wild-type FGFR and an EGFR del19 mutation; or • H1975: human non-small cell lung cancer (NSCLC) with wild-type FGFR and EGFR L858R/T790M mutation.
(§3) Cell lines are purchased from the American Type Culture Collection (ATCC) or Sigma. All cell lines are maintained in RPMI-1640 or DMEM supplemented with 10% heat-inactivated fetal bovine serum.
(§4) Cells growing in the log phase are detached with Gibco™ TrypLE™ Express Enzyme and plated in 96 well plate at 3000 to 5000 cells/well in 100 μl of media. After overnight incubation at 37° C., 5% CO2 incubator, cells are treated with compounds (50 uL/well) at the final concentrations spanning from 0.000038 uM to 10 μM (4-fold serial dilution for total of 10 points). Cells are incubated at 37° C., 5% CO2, and 95% humidity incubator for 96 hours. At the end of incubation 2D CTG reagent from Promega was added to each well according to vendors recommendation and mixed for 10 min in dark. The luminescence signals are determined with a Biotek™ plate reader. Data is fitted using a sigmoidal curve analysis program (GraphPad Prism®) with variable hill slope and IC50 is determined.

The target of a further assay is T4, FGFR1 (Homo sapiens, UniProt P11362).
T4 construct: DMS114 (FGFR1 amplification); host or cells: DMS114
T4 sequence (P11362 22-822): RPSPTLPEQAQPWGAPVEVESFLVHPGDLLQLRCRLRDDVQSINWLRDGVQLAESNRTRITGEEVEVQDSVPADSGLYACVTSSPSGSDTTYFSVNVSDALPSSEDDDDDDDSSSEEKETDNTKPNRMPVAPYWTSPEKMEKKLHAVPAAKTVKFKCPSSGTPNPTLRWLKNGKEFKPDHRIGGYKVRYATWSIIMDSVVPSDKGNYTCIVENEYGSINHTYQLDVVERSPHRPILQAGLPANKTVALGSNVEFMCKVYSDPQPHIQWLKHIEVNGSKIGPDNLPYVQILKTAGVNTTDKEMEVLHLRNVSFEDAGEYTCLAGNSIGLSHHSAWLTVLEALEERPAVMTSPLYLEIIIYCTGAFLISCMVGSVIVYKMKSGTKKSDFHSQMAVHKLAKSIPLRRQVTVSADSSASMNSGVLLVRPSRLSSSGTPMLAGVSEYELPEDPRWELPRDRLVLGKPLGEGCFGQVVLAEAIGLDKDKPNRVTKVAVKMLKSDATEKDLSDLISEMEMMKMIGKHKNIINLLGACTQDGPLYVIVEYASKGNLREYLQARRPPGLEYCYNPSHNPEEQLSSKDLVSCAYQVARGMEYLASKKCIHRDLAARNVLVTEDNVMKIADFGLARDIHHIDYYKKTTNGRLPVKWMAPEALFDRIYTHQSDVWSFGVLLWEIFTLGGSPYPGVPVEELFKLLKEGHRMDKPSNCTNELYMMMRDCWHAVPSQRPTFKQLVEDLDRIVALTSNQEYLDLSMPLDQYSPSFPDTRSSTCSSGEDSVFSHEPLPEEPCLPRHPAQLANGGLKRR
As to the kind of experiment: pERK potency assay (In Cell ELISA), DMS114 cells. Type of assay: cell-based. The note with it: DMS114 (FGFR1 amplification) cells, 3 hours. A digest of the protocol: as §1

Another assay has as its target T5, Ba/F3 FGFR2-V564F (Homo sapiens, UniProt P21802, V564F, cells depend on it).
T5 construct: fused on or other part: Q9H694 (Protein bicaudal C homolog 1)
As to the kind of experiment: 2D cell proliferation assay, Ba/F3 FGFR2-V564F. Type of assay: cell-based, mouse. Conditions: 96 hours, CTG, read-out: Cell Line, IC50 Ba/F3 FGFR2-V564F. On the procedure: as §2, §3, §4

T1 sequence (P21802 22-821 K310R/N549K): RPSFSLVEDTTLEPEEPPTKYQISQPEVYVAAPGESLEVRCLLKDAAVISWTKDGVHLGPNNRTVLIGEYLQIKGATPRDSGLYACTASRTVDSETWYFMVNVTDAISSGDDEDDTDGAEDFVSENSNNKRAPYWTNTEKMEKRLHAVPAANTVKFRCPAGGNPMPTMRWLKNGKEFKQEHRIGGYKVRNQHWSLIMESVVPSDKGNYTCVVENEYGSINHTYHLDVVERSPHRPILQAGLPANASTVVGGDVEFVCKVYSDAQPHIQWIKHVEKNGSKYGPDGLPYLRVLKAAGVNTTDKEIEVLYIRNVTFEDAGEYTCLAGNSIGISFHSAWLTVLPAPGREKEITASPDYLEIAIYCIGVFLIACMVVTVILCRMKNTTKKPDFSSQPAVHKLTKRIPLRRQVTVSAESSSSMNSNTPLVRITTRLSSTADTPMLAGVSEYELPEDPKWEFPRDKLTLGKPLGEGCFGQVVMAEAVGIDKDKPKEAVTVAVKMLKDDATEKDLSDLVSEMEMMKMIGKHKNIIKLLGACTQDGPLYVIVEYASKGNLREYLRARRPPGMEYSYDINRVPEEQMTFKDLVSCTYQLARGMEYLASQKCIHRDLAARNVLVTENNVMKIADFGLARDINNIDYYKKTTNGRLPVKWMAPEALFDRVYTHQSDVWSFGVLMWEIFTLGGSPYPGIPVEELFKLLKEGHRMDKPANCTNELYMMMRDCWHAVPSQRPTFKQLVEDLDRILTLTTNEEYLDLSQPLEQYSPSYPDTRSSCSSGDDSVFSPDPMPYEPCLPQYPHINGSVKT
T3 sequence (P21802 whole entry N549K, the tested form may be a part): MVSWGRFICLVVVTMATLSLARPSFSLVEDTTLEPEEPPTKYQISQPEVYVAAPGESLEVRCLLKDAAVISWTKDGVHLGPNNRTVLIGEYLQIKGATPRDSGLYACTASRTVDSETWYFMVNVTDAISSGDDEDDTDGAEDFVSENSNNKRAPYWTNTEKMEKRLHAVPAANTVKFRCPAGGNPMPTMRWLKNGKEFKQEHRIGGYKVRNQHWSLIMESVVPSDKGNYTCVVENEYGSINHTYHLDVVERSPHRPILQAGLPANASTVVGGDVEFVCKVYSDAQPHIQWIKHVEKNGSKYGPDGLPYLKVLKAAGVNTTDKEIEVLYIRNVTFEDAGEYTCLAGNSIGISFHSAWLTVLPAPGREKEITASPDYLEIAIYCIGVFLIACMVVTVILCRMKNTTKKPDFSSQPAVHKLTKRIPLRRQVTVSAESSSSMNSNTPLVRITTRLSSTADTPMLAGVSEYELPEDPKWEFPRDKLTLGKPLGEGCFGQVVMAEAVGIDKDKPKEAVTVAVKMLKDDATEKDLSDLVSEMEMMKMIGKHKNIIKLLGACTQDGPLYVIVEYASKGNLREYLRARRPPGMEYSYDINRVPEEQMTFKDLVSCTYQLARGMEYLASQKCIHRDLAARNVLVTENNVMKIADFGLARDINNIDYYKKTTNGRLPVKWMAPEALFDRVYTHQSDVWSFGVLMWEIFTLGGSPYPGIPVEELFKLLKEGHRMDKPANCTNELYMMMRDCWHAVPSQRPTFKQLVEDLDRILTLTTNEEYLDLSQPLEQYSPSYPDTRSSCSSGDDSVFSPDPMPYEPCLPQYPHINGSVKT
T5 sequence (P21802 whole entry V564F, the tested form may be a part): as the sequence (P21802 whole entry N549K, the tested form may be a part) above, with K549N, V564F counted along it

In the case of `C=CC(=O)N1CCC2(CC=C(c3c(-c4ncc(OC)cn4)c4c(N)ncnc4n3C)CC2)CC1` [Example 43, 1-(9-(4-amino-5-(5-methoxypyrimidin-2-yl)-7-methyl-7H-pyrrolo[2,3-d]pyrimidin-6-yl)-3-azaspiro[5.5]undec-8-en-3-yl)prop-2-en-1-one], the 50% inhibitory concentration (IC50) was at most 1 nM at FGFR2, above 100 nM at FGFR3 and above 100 nM on FGFR1. Further, the “FGFR1 IC50/FGFR2 IC50” value on FGFR2 was “H (a selectivity ratio greater than 500 but less than or equal to 1000)”. Further, at FGFR2, the “FGFR3 IC50/FGFR2 IC50” value is given as “J (a selectivity ratio greater than 2000)”. The GI50 was 1 to 10 nM at Ba/F3 FGFR2-N549K and at most 1 nM on Ba/F3 FGFR2-V564F.

With `C=CC(=O)N1CCC2(CC=C(c3c(-c4ncc(F)cn4)c4c(N)ncnc4n3C)CC2)CC1` [Example 44, 1-(9-(4-amino-5-(5-fluoropyrimidin-2-yl)-7-methyl-7H-pyrrolo[2,3-d]pyrimidin-6-yl)-3-azaspiro[5.5]undec-8-en-3-yl)prop-2-en-1-one], the IC50 at FGFR2 is 1 to 10 nM; at FGFR3, above 100 nM; on FGFR1, above 100 nM. In addition, the “FGFR1 IC50/FGFR2 IC50” value on FGFR2 is reported as “H (a selectivity ratio greater than 500 but less than or equal to 1000)”. Further, the “FGFR3 IC50/FGFR2 IC50” value at FGFR2 is “J (a selectivity ratio greater than 2000)”. For the same compound, the GI50 at Ba/F3 FGFR2-N549K is 1 to 10 nM; on Ba/F3 FGFR2-V564F, at most 1 nM.

In the case of `C=CC(=O)N1CCC2(CC=C(c3c(-c4ncc(C5CC5)cn4)c4c(N)ncnc4n3C)CC2)CC1` [Example 45, 1-(9-(4-amino-5-(5-cyclopropylpyrimidin-2-yl)-7-methyl-7H-pyrrolo[2,3-d]pyrimidin-6-yl)-3-azaspiro[5.5]undec-8-en-3-yl)prop-2-en-1-one], the IC50 on FGFR2 was at most 1 nM; on FGFR3, above 100 nM; on FGFR1 it was above 100 nM. The “FGFR1 IC50/FGFR2 IC50” value at FGFR2 is given as “G (a selectivity ratio greater than 150 but less than or equal to 500)”. The “FGFR3 IC50/FGFR2 IC50” value at FGFR2 is “H (a selectivity ratio greater than 500 but less than or equal to 1000)”. In addition, the GI50 on Ba/F3 FGFR2-N549K and at Ba/F3 FGFR2-V564F was 1 to 10 nM throughout.

As to `C=CC(=O)N1CCC2(CC=C(c3c(-c4ncc(OC5CCOC5)cn4)c4c(N)ncnc4n3C)CC2)CC1` (centres unmarked) [Example 47, 1-(9-(4-amino-7-methyl-5-(5-((tetrahydrofuran-3-yl)oxy)pyrimidin-2-yl)-7H-pyrrolo[2,3-d]pyrimidin-6-yl)-3-azaspiro[5.5]undec-8-en-3-yl)prop-2-en-1-one], the IC50 on FGFR2 is at most 1 nM; at FGFR3, above 100 nM; on FGFR1, above 100 nM. Moreover, the “FGFR1 IC50/FGFR2 IC50” value on FGFR2 was “G (a selectivity ratio greater than 150 but less than or equal to 500)”. Moreover, the “FGFR3 IC50/FGFR2 IC50” value on FGFR2 is listed as “I (a selectivity ratio greater than 1000 but less than or equal to 2000)”. The GI50 at Ba/F3 FGFR2-N549K and at Ba/F3 FGFR2-V564F was above 100 nM throughout.

Turning to `C=CC(=O)N1CCC2(CC=C(c3c(-c4ncc(OC5CC5)cn4)c4c(N)ncnc4n3C)CC2)CC1` [Example 50, 1-(9-(4-amino-5-(5-cyclopropoxypyrimidin-2-yl)-7-methyl-7H-pyrrolo[2,3-d]pyrimidin-6-yl)-3-azaspiro[5.5]undec-8-en-3-yl)prop-2-en-1-one], the figures for the half-inhibitory concentration (IC50) on FGFR2, at FGFR3 and on FGFR1 were at most 1 nM, above 100 nM and above 100 nM, respectively. In addition, the “FGFR1 IC50/FGFR2 IC50” value on FGFR2 is recorded as “G (a selectivity ratio greater than 150 but less than or equal to 500)”. Also, on FGFR2, the “FGFR3 IC50/FGFR2 IC50” value was “I (a selectivity ratio greater than 1000 but less than or equal to 2000)”. The GI50 is 1 to 10 nM at Ba/F3 FGFR2-N549K and at most 1 nM at Ba/F3 FGFR2-V564F.

One may read the IC50 as the point on the concentration scale where inhibition reaches its midpoint.
